Source: US20130150375A1, “GEPIRONE-ER TREATMENT OF MAJOR DEPRESSION IN PATIENTS TAKING NON-STEROIDAL ANTI-INFLAMMATORY DRUGS (NSAIDs)” (Fabre-Kramer Pharmaceuticals.Inc., priority 2011, published 2013)

Legend:
[1] = system: presynaptic α-2-adrenoceptor; settings: cited from earlier work
[2] = in vivo; cited from earlier work
[3] = system: post-synaptic receptors in the hippocampus; settings: cited from earlier work
5-HT receptors = settings: cited from earlier work
[4] = system: depressed patients taking an NSAID; assay: Individual patient cases from the study (Examples 1 and 2), HAMD-17; type: in vivo, human; settings: Example 2: person taking ibuprofen
Description: The following Examples represent a sampling of the subjects studied:
A person came to a psychiatric clinic complaining of depression. Their symptoms included: depressed mood, insomnia, lack of energy, low sex drive, and mild suicidal thoughts. They also were being treated for cardiac complains and was taking a daily NSAID (aspirin) to improve blood flow. They refused to discontinue their aspirin because their cardiologist had prohibited them from doing so. Their initial HAMD-17 was 26. After 8 weeks of treatment with Gepirone-ER all of their depressive symptoms had been eliminated.
A person came into the same psychiatric clinic complaining of depression. Their symptoms included depressed mood, lethargy, guilt, and trouble waking up early in the morning. They were also being treated by their neurologist for chronic headaches with ibuprofen. They refused to discontinue the ibuprofen because the headaches interfered with their ability to work. Their initial HAMD-17 was 16. […] A further trial of a second SSRI (citalopram) also failed.

depressed subjects = assay: Antidepressant efficacy with and without concomitant NSAIDs in depressed subjects (HAMD-17); type: in vivo, human; settings: for HAMD-17 CFB (change from baseline) / Remitters (HAMD-17 score of 7 or less after treatment) / Responders (50% improvement in HAMD-17): end of treatment
Description: To control for a placebo effect, 1045 depressed patients taking placebo were studied. Finally, 1041 depressed subjects taking gepirone-ER were studied. In contrast to the STAR-D study, three measures of efficacy were employed: remitters (HAMD-17 score 7 or less at end of treatment), responders (HAMD-17 50% reduction from baseline score at end of treatment) and HAMD-17 total score (change from baseline at end of treatment). Further, to test a possible dose of NSAID effect, two dose levels were tested: subjects taking any NSAID any time and subjects taking daily aspirin and other NSAIDs.

[5] = High NSAID (daily aspirin and other NSAIDs)
[6] = High NSAID (daily aspirin and other NSAIDs), listed as fluoxetine
[7] = no NSAID (None), comparison to Any NSAID
[8] = no NSAID (None), comparison to High NSAID
[9] = subjects taking any NSAID any time

c1cnc(N2CCNCC2)nc1 [1-PP, 1-(2-pyrimidinyl)piperazine]
Action at presynaptic α-2-adrenoceptor [1]: antagonist
Antidepressant-like characteristics in pre-clinical tests [2]: did not exhibit antidepressant-like characteristics

CC1(C)CC(=O)N(CCCCN2CCN(c3ncccn3)CC2)C(=O)C1O (stereo not drawn) [3′-OH gepirone]
Agonism at post-synaptic receptors in the hippocampus [3]: full agonism
Affinity for 5-HT receptors (5-HT receptors): significant affinity

CNCCC(Oc1ccc(C(F)(F)F)cc1)c1ccccc1 (stereo not drawn) [Fluoxetine]
Clinical outcome [4]: no improvement
HAMD-17 score after treatment ([4]; initial HAMD-17 16, after 8 weeks of treatment): 20
HAMD-17 CFB (change from baseline) (depressed subjects; [5]): −9.03
Remitters (HAMD-17 score of 7 or less after treatment) (depressed subjects; [5]): 27%
Responders (50% improvement in HAMD-17) (depressed subjects; [5]): 45%
HAMD-17 CFB (change from baseline) (depressed subjects; [6]): −9.04
Responders (50% improvement in HAMD-17) (depressed subjects; [6]): 45%
Effect of NSAIDs on antidepressant efficacy (depressed subjects; either NSAID dose level, three efficacy measures): NSAIDs interfere with the antidepressant activity
HAMD-17 CFB (change from baseline) (depressed subjects; [7]): −10.5
Remitters (HAMD-17 score of 7 or less after treatment) (depressed subjects; [7]): 28.3%
Responders (50% improvement in HAMD-17) (depressed subjects; [7]): 51%
Remitters (HAMD-17 score of 7 or less after treatment) (depressed subjects; [8]): 32%
Responders (50% improvement in HAMD-17) (depressed subjects; [8]): 55%
Responders (50% improvement in HAMD-17) (depressed subjects; no NSAID (None), comparison to High NSAID, listed as fluoxetine): 55%
HAMD-17 CFB (change from baseline) (depressed subjects; [9]): −9.57
Remitters (HAMD-17 score of 7 or less after treatment) (depressed subjects; [9]): 29%
Responders (50% improvement in HAMD-17) (depressed subjects; [9]): 48%
